Assay results reported in PMC4929710, “Specificity and mechanism of action of alpha-helical membrane-active peptides interacting with model and biological membranes by single-molecule force spectroscopy” (Scientific Reports, 2016).

Experiments:
bacteria = conditions: text summary of Table 1, strain not specified
Experimental: Minimal inhibitory concentrations (MICs) were used to represent the antimicrobial activity of MAPs and were determined by the standard microtiter dilution method. Four bacterial strains including two gram-negative bacterial strains of E. coli and P. aeruginosa, and two gram-positive bacterial strains of S. aureus and S. epidermidis were selected as representative prokaryotes. A single bacterial colony was picked and cultured in Mueller–Hinton (MH) medium for 18–20 h. The bacterial solution was diluted in the same medium for a final inoculum of 5 × 10^5 colony-forming units (CFU)/mL and placed in 96-well plates with 90 μL per well. Then, 10 μL of peptides was added. MICs were determined as the lowest peptide concentration that inhibited bacterial growth after incubation for 24 h at 37 °C. All assays were repeated in triplicate. GM is the geometric mean of MIC values from two gram-positive bacteria strains or two gram-negative bacteria strains in this table.

[1] = test system: human red blood cells (hRBCs); assay: Hemolytic activity assay (MHC); format: cell-based; conditions: 1% final hRBCs in PBS (70 μL of 2% + 70 μL peptide), 37 °C, 2 h, absorbance 578 nm
Experimental: Peptide samples were serially diluted with phosphate-buffered saline (PBS) and added to 96-well plates (round bottom) with 70 μL per well. Healthy human red blood cells (hRBCs) were collected using an anticoagulation tube with EDTAK2 and centrifuged at 1,000 rpm for 5 min. The erythrocytes were washed three times, resuspended in PBS, and then diluted to a concentration of 2% in PBS. A total of 70 μL of 2% erythrocytes was added to each well and incubated at 37 °C for 2 h. The plates were centrifuged for 10 min at 3,000 rpm and the supernatant was transferred to a 96-well plate (flat bottom). The release of hemoglobin was determined by measuring the absorbance of the supernatant at 578 nm. The hemolytic activity was determined as the minimal peptide concentration that caused hemolysis [minimal hemolytic concentration (MHC)]. Erythrocytes in PBS and distilled water were used as the control of 0% and 100% hemolysis, respectively.

Compound | MIC value (bacteria) | MHC (minimal hemolytic concentration) [1] [µM]
Ac-KWKSFAKTFKSAKKTVAHTALKAISS-NH2 [L6A/L17A] | approximately 125 μM | 
CC[C@H](C)[C@H](NC(=O)[C@H](C)NC(=O)[C@H](CCCCN)NC(=O)[C@H](CC(C)C)NC(=O)[C@H](C)NC(=O)[C@@H](NC(=O)[C@H](Cc1cnc[nH]1)NC(=O)[C@H](CC(C)C)NC(=O)[C@@H](NC(=O)[C@@H](NC(=O)[C@H](CCCCN)NC(=O)[C@H](CCCCN)NC(=O)[C@H](C)NC(=O)[C@H](CO)NC(=O)[C@H](CCCCN)NC(=O)[C@H](Cc1ccccc1)NC(=O)[C@@H](NC(=O)[C@H](CCCCN)NC(=O)[C@H](CC(C)C)NC(=O)[C@H](Cc1ccccc1)NC(=O)[C@H](CO)NC(=O)[C@H](CCCCN)NC(=O)[C@H](Cc1c[nH]c2ccccc12)NC(=O)[C@H](CCCCN)NC(C)=O)[C@@H](C)O)[C@@H](C)O)C(C)C)[C@@H](C)O)C(=O)N[C@@H](CO)C(=O)N[C@@H](CO)C(N)=O [Peptide V13K] |  | 250
